Test results as given in article PMC9234671, “Molecular determinants of αVβ5 localization in flat clathrin lattices – role of αVβ5 in cell adhesion and proliferation” (Journal of Cell Science, 2022).
“Also recorded” adds a separate entry of the source.

Legend:
Assay type in all cases: binding
[1] = test system: talin; experiment: Peptide pulldown, talin; settings: desthiobiotin tail peptide on streptavidin beads, RAC-11P lysate, 4°C, 4 h; western blot; two repeats
Experimental: (§1) Peptide pulldowns were carried out as previously described ([Böttcher et al., 2012]) with the mouse β1 wild-type cytoplasmic tail peptide ([…]-OH) and a scrambled peptide ([…]-OH), mouse β3 wild-type tail peptide ([…]-OH), mouse β5 wild-type tail peptide ([…]-OH), β5 Δ8aa tail peptide ([…]-OH) and scrambled peptide […].
(§2) The tail peptides were synthesized de novo with a desthiobiotin on the N-terminus, coupled to Dynabeads MyOne streptavidin C1 (10 mgml^−1, Invitrogen) and incubated with RAC-11P cell lysates (prepared with M-PER reagent, Thermo Fisher Scientific) at 4°C with rotation for 4 h. After three washes with wash buffer (M-PER diluted 1:1 with PBS), bound proteins were eluted in 2× Laemmli buffer at 95°C for 5 min and separated on an 8% SDS-PAGE gel.

[2] = test system: KANK-2; experiment: Peptide pulldown, KANK-2; settings: desthiobiotin tail peptide on streptavidin beads, RAC-11P lysate, 4°C, 4 h; western blot; two repeats
Experimental: as §1, §2

[3] = test system: Numb; experiment: Peptide pulldown, Numb; settings: desthiobiotin tail peptide on streptavidin beads, RAC-11P lysate, 4°C, 4 h; western blot; two repeats
Experimental: as §1, §2

[4] = molecular target: T1, full-length human ARH (Homo sapiens, UniProt Q5SW96); experiment: Microscale thermophoresis (MST), ARH; settings: concentration range tested up to 50 µM for β1
T1 construct: The full-length human ARH gene was cloned into the pETNKI-6xhis-3C-LIC vector; made in house; host or cells: E. coli BL21(DE3)
T1 sequence (Q5SW96 1-308): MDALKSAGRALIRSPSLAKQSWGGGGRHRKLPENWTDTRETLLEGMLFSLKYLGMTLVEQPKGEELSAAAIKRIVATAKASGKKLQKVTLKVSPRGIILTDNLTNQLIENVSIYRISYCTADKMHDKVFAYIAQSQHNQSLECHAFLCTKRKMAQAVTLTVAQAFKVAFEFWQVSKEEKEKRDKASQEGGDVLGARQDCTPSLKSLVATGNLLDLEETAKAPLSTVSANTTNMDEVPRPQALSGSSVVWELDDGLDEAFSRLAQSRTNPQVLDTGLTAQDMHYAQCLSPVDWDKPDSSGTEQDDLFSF
Source text: (§3) Fig. 2. Adaptor protein binding to integrin β subunits. (A) Colocalization of integrin chimeras fused to the promiscuous biotin ligase BirA* (green in merge) with vinculin (red; left panels) or clathrin (red; right panels) in PA-JEB/β4 keratinocytes. Actin is shown in blue. Nuclei are stained with DAPI (cyan). Scale bars: 20 μm. (B) Representative western blots of BioID assays performed using the integrin chimeras shown in A. Quantifications of ARH, Numb and talin signal intensities normalized to streptavidin-HRP levels are shown (n=3; bars show mean±s.d.). (C) Representative western blots of pulldown assays (from two repeats) using synthetic integrin β cytoplasmic domains in RAC-11P cell lysates.
The full-length human ARH gene was cloned into the pETNKI-6xhis-3C-LIC vector ([Luna-Vargas et al., 2011]) and 6xhis–ARH protein was produced in Bl21(DE3) E. coli cells. Cells were grown at 37°C until an optical density at 600 nm (OD600) of 0.6 was reached. Temperature was reduced to 30°C and protein was expressed upon induction with 0.4 mM IPTG for 3.5 h. Cells were harvested and resuspended in lysis buffer (20 mM HEPES, pH 7.5, 200 mM NaCl, 1 mM TCEP and 5 μg ml^−1 DNase). After sonication, cell debris and insoluble proteins were removed by centrifugation (21,000 g for 30 min). 6xhis–ARH was purified from the soluble fraction using nickel Sepharose beads and eluted in 20 mM HEPES, pH 7.5, 200 mM NaCl, 1 mM TCEP and 250 mM imidazole. Fractions containing 6xhi–ARH were further purified on a SEC650 size exclusion column (Bio-Rad), equilibrated with 20 mM HEPES, pH 7.5, 100 mM NaCl and 1 mM TCEP.
(§4) All MST measurements were performed on a Monolith NT.115 red-blue (Nanotemper, Munich, Germany) using premium-coated capillaries to reduce non-specific interaction of the proteins with the glass surface. Both interaction partners (ligand and receptor) were transferred into MST buffer (20 mM Tris-HCl pH 7.5, 200 mM sodium chloride, 1 mM TCEP and 0.05% Tween-20) to avoid artifacts derived from buffer mismatches. […] Data was analyzed using the MO Affinity Analysis Software (Nanotemper).

[5] = test system: kindlin-1/2; experiment: Peptide pulldown, kindlin-1/2; settings: desthiobiotin tail peptide on streptavidin beads, RAC-11P lysate, 4°C, 4 h; western blot; two repeats
Experimental: as §1, §2

[6] = test system: ARH; experiment: Peptide pulldown, ARH; settings: desthiobiotin tail peptide on streptavidin beads, RAC-11P lysate, 4°C, 4 h; western blot; two repeats
Experimental: as §1, §2

[7] = test system: kindlin-2; experiment: Microscale thermophoresis (MST), kindlin-2; settings: titration of kindlin-2 to 200 nM ATTO488-labeled cytoplasmic tail peptide; n≥3
Experimental: Kindlin-2 was expressed and purified as described in [Böttcher et al. (2017)]. Briefly, kindlin constructs were cloned into pCoofy17 ([Scholz et al., 2013]), which adds an N-terminal His10-Sumo tag and expressed soluble in E. coli Rosetta at 18°C overnight. After purification by immobilized-metal affinity chromatography (IMAC) in high-salt TBS buffer (20 mM Tris, pH 7.5, 500 mM NaCl, 1 mM TCEP), the Sumo tag was removed by SenP2 (obtained from MPIB Biochemistry Core Facility) digest overnight and the protein was further purified by SEC using TBS (20 mM Tris-HCl pH 7.5, 200 mM NaCl, 1 mM TCEP) containing 5% glycerol as running and storage buffer. After the final chromatography, the purity, integrity and identity of recombinant kindlin-2 and talin-1 head domain were controlled by UV spectrum, SDS-PAGE, high-resolution total mass and dynamic light scattering (DLS).
as §4, with “(Nanotemper). […]” for “(Nanotemper).”

[8] = molecular target: T2, Numb-PTB (20-175) (Homo sapiens, UniProt P49757); experiment: Microscale thermophoresis (MST), Numb; settings: concentration range tested up to 50 µM for β1
T2 construct: A pETNKI-6xhis-3C-Numb-PTB (20-175) construct was expressed in Rosetta2 (DE3) cells; 6xHis-3C (N, cleaved yes); made in house; host or cells: E. coli Rosetta2 (DE3)
T2 sequence (P49757 20-175): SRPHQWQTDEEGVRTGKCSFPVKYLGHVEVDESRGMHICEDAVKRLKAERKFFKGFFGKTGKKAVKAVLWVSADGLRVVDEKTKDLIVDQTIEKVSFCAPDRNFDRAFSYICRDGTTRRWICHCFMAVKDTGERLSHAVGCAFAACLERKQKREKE
Source text: as §3
A pETNKI-6xhis-3C-Numb-PTB (20-175) construct was expressed in Rosetta2 (DE3) cells for 18 h at 20°C. Cells were lysed (25 mM Tris-HCl pH 8.0, 10 mM imidazole, 200 mM NaCl, 1 mM TCEP, 5 μg/ml DNase) and sonicated, after which insoluble proteins and cell debris were removed by centrifugation (21,000 g for 30 min at 4°C). Soluble lysate was applied to a nickel Sepharose column and beads were washed with wash buffer (lysis buffer without DNase) before protein was eluted in wash buffer supplemented with 250 mM imidazole. The 6xhis tag was cleaved off by his-3C protease during dialysis against 25 mM Tris-HCl pH 8.0, 100 mM NaCl, 1 mM TCEP, 16 h at 4°C. Elution fractions were pooled, diluted with six volumes of 20 mM HEPES pH 7.5, 1 mM TCEP and applied to a 1 ml Resource S cation-exchange column (Cytiva). Protein was eluted in a NaCl gradient (50–700 mM) in 25 mM HEPES (pH 7.5). 6xhis-Numb-PTB was concentrated and further purified by size-exclusion chromatography (SEC70 column, Bio-Rad) in 25 mM Tris-HCl pH 8.0, 200 mM NaCl and 1 mM TCEP.
All MST measurements were performed on a Monolith NT.115 red-blue (Nanotemper, Munich, Germany) using premium-coated capillaries to reduce non-specific interaction of the proteins with the glass surface. […] Data was analyzed using the MO Affinity Analysis Software (Nanotemper).

Substance: HDRREFAKFEKEKMNAKWDTGENPIYKSAVTTVVNPKYEGK-OH [β1, synthetic integrin β1 cytoplasmic tail peptide]
- interaction with talin in pulldown [1]: interaction
- interaction with KANK-2 in pulldown [2]: interaction
- interaction with Numb in pulldown [3]: not β1 and β3, bind to Numb and ARH
- binding to ARH by MST (β1) [4]: no binding; also recorded: unable to detect binding
- interaction with kindlin-1/2 in pulldown [5]: interaction
- interaction with ARH in pulldown [6]: not β1 and β3, bind to Numb and ARH
- binding to kindlin by MST [7]: much higher affinity than β3 and β5
- binding to Numb by MST (β1) [8]: no binding; also recorded: unable to detect binding
